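Exposure lasted 48 hours, with cells grown in 96-well plates and compounds tested at five concentrations. The concentration for 50% growth inhibition is given as GI50. TGI: concentration producing complete growth inhibition.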

This note sets out measurements from PubChem BioAssay (NCI).

Some test systems named below: CCRF-CEM leukemia; HL-60(TB) leukemia; HOP-92 NSCLC; MALME-3M melanoma; NCI-H460 lung; NCI/ADR-RES ovarian; SF-295 CNS; T-47D breast; HCC-2998 colon; SF-268 CNS.
Holding throughout (assay): inhibition of tumour cell growth, NCI panel, 48 h

With `O=C1CN2Cc3cc(N4CCOCC4)ccc3N=C2N1`, the TGI with CCRF-CEM leukemia, in the test with HL-60(TB) leukemia, in the test on HOP-92 NSCLC, in the test on MALME-3M melanoma, in the test on NCI-H460 lung and with NCI/ADR-RES ovarian was above 100 µM in each case. Further, the TGI in the test with SF-295 CNS and with T-47D breast was above 100 µM each time.
`CCc1n[nH]c(=O)n1/N=C/c1ccccc1Cl`: the TGI with CCRF-CEM leukemia, with HCC-2998 colon, in the test with HL-60(TB) leukemia, in the test with HOP-92 NSCLC, in the test with MALME-3M melanoma and in the test on NCI-H460 lung was above 100 µM throughout. In addition, the TGI in the test with NCI/ADR-RES ovarian, with SF-268 CNS, in the test on SF-295 CNS and in the test with T-47D breast was above 100 µM in each case.
As for `CCCCC(=O)Nc1ccc2cc(C(=O)OC)c(ON3C(=O)c4ccccc4C3=O)nc2n1`, the TGI with CCRF-CEM leukemia is above 100 µM; in the test with HCC-2998 colon, above 100 µM; in the test with HOP-92 NSCLC, 65.3 µM; in the test with MALME-3M melanoma, 38.5 µM; with NCI-H460 lung it was 51.4 µM; with NCI/ADR-RES ovarian, above 100 µM. The TGI is 81.2 µM in the test on SF-268 CNS, above 100 µM in the test on SF-295 CNS and above 100 µM in the test with T-47D breast.
As for `O=[N+]([O-])c1cccc2nc3ccccc3c(NCCc3cccc[n+]3[O-])c12`, the TGI with HCC-2998 colon is below 0.01 µM; in the test with HL-60(TB) leukemia, 0.277 µM; with HOP-92 NSCLC, below 0.0507 µM; with MALME-3M melanoma it was below 0.034 µM; in the test on NCI-H460 lung, 0.174 µM; in the test on NCI/ADR-RES ovarian, 8.67 µM. Besides, the TGI came out at 0.202 µM in the test on SF-268 CNS, 0.266 µM in the test with SF-295 CNS and 0.852 µM with T-47D breast.
With `CCOC(=O)CCC(NC(=O)c1ccc(Oc2nc3ccc(C(F)(F)F)cc3nc2-c2ccccc2)cc1)C(=O)OCC` (centres undefined), the TGI with CCRF-CEM leukemia is above 100 µM; in the test on HCC-2998 colon, above 100 µM; in the test with HL-60(TB) leukemia it was above 100 µM; with HOP-92 NSCLC, 98.4 µM; with MALME-3M melanoma it was 44.9 µM; with NCI-H460 lung, above 100 µM. The TGI in the test on NCI/ADR-RES ovarian is above 100 µM; in the test with SF-268 CNS it was 42.1 µM; in the test with SF-295 CNS, above 71.6 µM; in the test on T-47D breast it was above 100 µM.
For the molecule `COCC1CCCN1c1ccc(/C=C(/C#N)C(N)=S)cc1` (centres undefined), the GI50 in the test with CCRF-CEM leukemia is 5.04 µM; in the test on HCC-2998 colon, above 100 µM; in the test on HL-60(TB) leukemia, above 100 µM; in the test with HOP-92 NSCLC, 8.32 µM; in the test with MALME-3M melanoma, above 100 µM; with NCI-H460 lung, above 100 µM. For the same molecule, the GI50 with NCI/ADR-RES ovarian is above 100 µM; in the test with SF-268 CNS, above 100 µM; in the test with SF-295 CNS it was above 100 µM; in the test with T-47D breast, 30.6 µM. The TGI in the test with CCRF-CEM leukemia is 20.6 µM; in the test with HCC-2998 colon, above 100 µM; in the test on HL-60(TB) leukemia, above 100 µM; in the test with HOP-92 NSCLC, 89.2 µM; with MALME-3M melanoma it was above 100 µM; in the test with NCI-H460 lung, above 100 µM. Moreover, the TGI in the test on NCI/ADR-RES ovarian, in the test with SF-268 CNS, in the test on SF-295 CNS and with T-47D breast was above 100 µM throughout.
On to `CN(NC(=O)CCCl)C1=NCCN1`, for which the TGI with CCRF-CEM leukemia, in the test with HCC-2998 colon, in the test with HL-60(TB) leukemia, with HOP-92 NSCLC, in the test on MALME-3M melanoma and in the test on NCI-H460 lung was above 100 µM throughout. The TGI in the test on NCI/ADR-RES ovarian, in the test on SF-268 CNS, in the test on SF-295 CNS and in the test with T-47D breast was above 100 µM throughout.
Regarding `N#Cc1c(-c2ccc([N+](=O)[O-])cc2)cc(-c2ccc(Nc3ccnc4cc(C(F)(F)F)ccc34)cc2)nc1N`, the TGI in the test with CCRF-CEM leukemia is above 29.7 µM; in the test on HCC-2998 colon, above 55.4 µM; in the test with HOP-92 NSCLC, 42 µM; in the test on MALME-3M melanoma it was above 62.8 µM; in the test with NCI-H460 lung, above 66.5 µM; in the test on NCI/ADR-RES ovarian, 35.3 µM. The TGI with SF-268 CNS was above 72 µM; in the test with SF-295 CNS, 37.6 µM; in the test on T-47D breast, 28.8 µM.
With `CCNC1(c2cccc(C)c2)OC(C)(C)c2cccc3cccc1c23` (centres undefined), the TGI is 26.4 µM with CCRF-CEM leukemia; 19.7 µM with HL-60(TB) leukemia; 22.4 µM in the test with HOP-92 NSCLC; 34.3 µM with MALME-3M melanoma; 30 µM in the test with NCI-H460 lung; 42.6 µM in the test with NCI/ADR-RES ovarian. The figures for the TGI with SF-268 CNS, with SF-295 CNS and in the test on T-47D breast were 30.9 µM, 35.2 µM and above 100 µM, respectively.
`O=c1[nH]c(Nc2cccc(C(F)(F)F)c2)nc2nc[nH]c12`: the TGI with CCRF-CEM leukemia, in the test on HCC-2998 colon, in the test with HL-60(TB) leukemia, with HOP-92 NSCLC, with MALME-3M melanoma and in the test with NCI/ADR-RES ovarian was above 100 µM in each case. Also, the TGI in the test with SF-268 CNS, in the test with SF-295 CNS and in the test with T-47D breast was above 100 µM in each case.
For `Cc1cccc2c1Oc1ccccc1C2NC(=O)c1ccc([N+](=O)[O-])cc1` (centres undefined), the TGI in the test on CCRF-CEM leukemia, with HL-60(TB) leukemia, in the test with HOP-92 NSCLC, with MALME-3M melanoma, with NCI-H460 lung and with NCI/ADR-RES ovarian was above 100 µM in each case. Besides, the TGI in the test on SF-268 CNS, in the test on SF-295 CNS and with T-47D breast was above 100 µM in each case.
On to `C[C@H](Nc1c(O)c2c(c(O)c1Cl)C(=O)C=CC2=O)C(=O)Nc1ccc([N+](=O)[O-])cc1`, for which the TGI is above 10 µM with CCRF-CEM leukemia; 8.05 µM in the test on HCC-2998 colon; 5.16 µM in the test with HOP-92 NSCLC; 2.41 µM in the test on MALME-3M melanoma; 6.29 µM in the test on NCI-H460 lung; 5.05 µM with NCI/ADR-RES ovarian. The TGI in the test on SF-268 CNS was 5.79 µM; in the test on SF-295 CNS, 7.54 µM; in the test on T-47D breast, above 10 µM.
As to `Nc1c(-c2nc3ccccc3s2)c2ccc([N+](=O)[O-])cc2c(=O)n1-c1cccc(C(=O)O)c1`, the TGI was 56.8 µM in the test on CCRF-CEM leukemia; above 100 µM in the test with HCC-2998 colon; 37.7 µM in the test with HL-60(TB) leukemia; 72.9 µM in the test with HOP-92 NSCLC; above 100 µM in the test on NCI-H460 lung; above 100 µM in the test with NCI/ADR-RES ovarian. The TGI in the test with SF-268 CNS was above 100 µM; in the test on T-47D breast, 64.1 µM.
